Assay results reported in patent US20240226049A1, “METHODS OF TREATMENT USING BEMPEDOIC ACID” (Esperion Therapeutics, Inc., priority 2023, published 2024).
“And” between values parts separate entries of the source, which are not always exact repeats. Equal entries are not always repeated.

Test system: primary prevention patients unable to tolerate recommended doses of statins
Test: CLEAR OUTCOMES primary prevention subgroup (Example 2): time-to-event efficacy end points
Format: in vivo, human
Experimental: The rationale, design and methods of the CLEAR Outcomes trial is described in Example 1. The trial was conducted at 1250 sites in 32 countries and designed by the Cleveland Clinic Coordinating Center for Clinical Research (C5Research) and an academic Executive Committee in collaboration with the sponsor. The protocol was approved by ethics committees at participating sites and all patients provided written informed consent before enrollment. A contract research organization collected the data which were transferred to C5Research at completion of the trial whose statisticians conducted the analyses described herein. An independent Data Monitoring Committee monitored the trial.
Primary prevention patients 18 to 85 years of age with an LDL cholesterol ≥100 mg/dL with clinical features placing them at high risk for a first cardiovascular event were eligible. Criteria for high cardiovascular risk included risk scores, such as the Reynolds Risk Score and the SCORE project (Ridker et al., Development and validation of improved algorithms for the assessment of global cardiovascular risk in women: the Reynolds Risk Score, JAMA. 2007 Feb. 14; 297(6):611-9; Ridker et al., C-reactive protein and parental history improve global cardiovascular risk prediction. The Reynolds Risk Score for men, Circulation. 2008; 118: 2243-2251; European Guidelines on CVD Prevention in Clinical Practice. 2016. Eur J Prev Cardiol. 2016 July; 23(11):NP1-NP96), a coronary artery calcium score >400 Agatston units (AU) or presence of either type 1 or 2 diabetes in women aged >65 years or men older than 60 years.
Investigators were responsible for assessing the patient for statin intolerance. Patients had to report statin intolerance due to an adverse effect that started or increased during statin therapy and resolved or improved after statin therapy was discontinued. Entry criteria required inability to tolerate 2 or more statins at any dose or 1 statin and unwillingness to attempt a second statin or advised by a physician not to attempt taking a second statin. Both the patient and site investigator were required to provide written confirmation that the patient was statin intolerant and aware of the benefits of statins to reduce the risk of cardiovascular events, including death, and acknowledge that many patients who are unable to tolerate a statin can tolerate a different statin or dose. Patients could be enrolled if they tolerated a very low average daily statin dose defined as rosuvastatin <5 mg, atorvastatin <10 mg, simvastatin <10 mg, lovastatin <20 mg, pravastatin <40 mg, fluvastatin <40 mg, or pitavastatin <2 mg. Other background lipid-lowering therapies were permitted, including ezetimibe, niacin, bile acid resins, fibrates, and/or proprotein convertase subtilisin kexin type 9 (PCSK9) inhibitors.
Eligible patients entered a 4-week run-in period during which patients were treated with single-blind placebo. If patients were intolerant to placebo treatment or if adherence was <80% by tablet count, they were not eligible for randomization. Patients who successfully completed the run-in period were randomly assigned in a 1:1 ratio to receive a 180 mg oral dose of bempedoic acid or matching placebo, administered daily. During the trial, LDL cholesterol and hsCRP results were masked. Beginning 6 months after randomization, the central laboratory notified the investigator, who remained blinded to treatment assignment, if the patient's LDL cholesterol level was ≥25% higher than baseline. Repeat testing was performed after the patient was counseled about diet and encouraged to take all medications as prescribed. The patient returned for a repeat fasting blood lipid profile to confirm whether the LDL cholesterol value exceeded the threshold criteria. If confirmed, the patient's treatment regimen for LDL cholesterol lowering could be adjusted, per standard of care and local practice. […]

[1] = primary prevention patients, 180 mg oral daily, N = 2100
[2] = vs placebo, primary prevention, adjusted for baseline characteristics
[3] = vs placebo, primary prevention, adjusted for baseline characteristics, listed as bempedoic acid
[4] = vs placebo, primary prevention, unadjusted

CC(C)(CCCCCC(O)CCCCCC(C)(C)C(=O)O)C(=O)O [Bempedoic Acid, Bempedoic acid]
3-component MACE, % of patients [1]: 4.0%
3-component MACE, number of patients [1]: 83 number of patients
5-component MACE, % of patients [1]: 5.3%
5-component MACE, number of patients [1]: 112 number of patients
All-cause mortality, % of patients [1]: 3.6%
All-cause mortality, number of patients [1]: 75 number of patients
Cardiovascular death, % of patients [1]: 1.8%
Cardiovascular death, number of patients [1]: 37 number of patients
Coronary revascularization, % of patients [1]: 2.4%
Coronary revascularization, number of patients [1]: 50 number of patients
Fatal and non-fatal MI, % of patients [1]: 1.4%
Fatal and non-fatal MI, number of patients [1]: 29 number of patients
Fatal and non-fatal stroke, % of patients [1]: 1.3%
Fatal and non-fatal stroke, number of patients [1]: 27 number of patients
Hospitalization for unstable angina, % of patients [1]: 0.5%
Hospitalization for unstable angina, number of patients [1]: 10 number of patients
Primary efficacy endpoint (MACE-4), % of patients [1]: 5.3%
Primary efficacy endpoint (MACE-4), number of patients [1]: 111 number of patients
number need to treat (NNT) to prevent one primary composite outcome (primary prevention patients, 4-component MACE): 43 patients
effect on stroke and coronary revascularization (primary prevention patients, vs placebo): not significantly reduced
3-component MACE, Hazard Ratio (95% CI), adjusted [2]: 0.64 (0.48-0.84)
5-component MACE, Hazard Ratio (95% CI), adjusted [2]: 0.69 (0.54-0.88)
All-cause mortality, Hazard Ratio (95% CI), adjusted [2]: 0.73 (0.54-0.98)
Cardiovascular death, Hazard Ratio (95% CI), adjusted [2]: 0.61 (0.41-0.92)
Coronary revascularization, Hazard Ratio (95% CI), adjusted [2]: 0.71 and 0.71 (0.49-1.03)
Fatal and non-fatal MI, Hazard Ratio (95% CI), adjusted [2]: 0.61 (0.39-0.98)
Fatal and non-fatal stroke, Hazard Ratio (95% CI), adjusted [2]: 0.76 (0.46-1.26)
Hospitalization for unstable angina, Hazard Ratio (95% CI), adjusted [2]: 0.58 (0.26-1.27)
Primary efficacy endpoint (MACE-4), Hazard Ratio (95% CI), adjusted [2]: 0.70 (0.55-0.89)
3-component MACE, Hazard Ratio (95% CI), adjusted [3]: 0.64
5-component MACE, Hazard Ratio (95% CI), adjusted [3]: 0.69
All-cause mortality, Hazard Ratio (95% CI), adjusted [3]: 0.73
Cardiovascular death, Hazard Ratio (95% CI), adjusted [3]: 0.61
Fatal and non-fatal MI, Hazard Ratio (95% CI), adjusted [3]: 0.61
Fatal and non-fatal stroke, Hazard Ratio (95% CI), adjusted [3]: 0.76
Hospitalization for unstable angina, Hazard Ratio (95% CI), adjusted [3]: 0.58
Primary efficacy endpoint (MACE-4), Hazard Ratio (95% CI), adjusted [3]: 0.70
3-component MACE, Hazard Ratio (95% CI), unadjusted [4]: 0.61 (0.46-0.80)
5-component MACE, Hazard Ratio (95% CI), unadjusted [4]: 0.67 (0.53-0.86)
All-cause mortality, Hazard Ratio (95% CI), unadjusted [4]: 0.69 (0.51-0.92)
Coronary revascularization, Hazard Ratio (95% CI), unadjusted [4]: 0.73 (0.50-1.05)
Death from cardiovascular causes, Hazard Ratio (95% CI), unadjusted [4]: 0.57 (0.38-0.85)
Fatal and non-fatal MI, Hazard Ratio (95% CI), unadjusted [4]: 0.61 (0.38-0.97)
Fatal and non-fatal stroke, Hazard Ratio (95% CI), unadjusted [4]: 0.72 (0.44-1.19)
Hospitalization for unstable angina, Hazard Ratio (95% CI), unadjusted [4]: 0.58 (0.27-1.27)
Primary efficacy endpoint (MACE-4), Hazard Ratio (95% CI), unadjusted [4]: 0.68 (0.53-0.87)
